# Results from US20240335429A1, “MOLECULAR GLUE AND SALL4 DEGRADER” (National University of Singapore, priority 2021, published 2024).
# Tests used:
# cleaved PARP = experiment: Immunoblot of cleaved PARP (apoptotic marker) in SNU-398 cells; type: cell-based, human; conditions: SNU-398 HCC cells, 24 h
# Experimental: RIPA buffer containing freshly added protease inhibitors (2 mM PMSF) and protease inhibitor cocktail was used for cell lysis. The lysed cells were incubated for 10 min on ice and subsequently centrifuged at 4° C. for 10 min at 14,000 rpm. The protein concentrations of cell lysates were assessed using Bradford Assay as per manufacturer's instructions. The samples were denatured using 4× Sample buffer at 95° C. for 5 min. The samples were size resolved using polyacrylamide gel (8%) and Mini-PROTEAN Tetra Cell module. The size-resolved proteins were transferred onto PVDF via electroblotting using Mini Trans-Blot® module. The membrane was blocked using 5% BSA in TBST. The membrane was incubated with appropriate primary antibody (overnight) and secondary antibody (1 h). Immobilon Crescendo Western HRP substrate was used for signal development and images were acquired using darkroom development techniques.
# [1] = CellTiter-Glo viability assay, SALL4-low cell panel; type: cell-based, human; conditions: human, SNU-387, SNU-449, SNU-475 and H1299 cells (SALL4-low); SALL4-low cells, highest dose 30 μM, 72 h; read-out: cells remained viable
# Experimental: Cells were plated in RPMI culture media (40 μL) in 384-well white, flat-bottom plates (Corning) and incubated at 37° C. in a humidified atmosphere of 5% CO2 overnight. The numbers of cells per well were 1,500 for SNU-398 and SNU-182, 750 for SNU-387, SNU-449, SNU-475 and SNU-423, and 1,000 for H661 and H1299. After overnight incubation, 10 μL of drug (1% DMSO in RPMI) at designed concentrations were added to the cells. The cells were then incubated for 16, 24, 48, 72, or 96 h at 37° C. in a humidified atmosphere of 5% CO2 before CellTiter-Glo reagent (10 μL) was dispensed to the wells. The cells were incubated at room temperature for a minimum of 10 min. After that, luminescence readings were recorded by a Microplate Reader (PHERAstar or Tecan Infinite M200 Pro) according to the manufacturer's instruction for measuring the luminescence.
compound,measurement,setting,value
COc1ccccc1NC(=O)Nc1ccc([N+](=O)[O-])cc1O [QE-18-WG07],cleavage of PARP (apoptosis induction),cleaved PARP,prominent cleavage of PARP
same,"viability at 72 h, 30 μM",[1],30 to 60%
